In brackets after ≈: the same amount, converted by molar mass.
Tests used:
E. faecalis ATCC 29212 = experiment: MIC by broth microdilution (CLSI); type: cell-based, Enterococcus faecalis; details: Enterococcus faecalis, ATCC29212; Gram-positive; 37 °C, 24 h, Mueller Hinton Broth; read-out: MIC E.f. 29212
Procedure: (§1) The in vitro Minimum Inhibitory Concentrations (MICs, μg/mL) were determined by the broth microdilution method according to the Clinical Laboratory Standards Institute (CLSI) guidelines. MIC values were recorded as the lowest concentration of compounds at which there was no optically detectable microorganism growth and evaluated by comparing the growth in each well visually with that of the growth in the control well for bacteria. All compounds were dissolved in dimethyl sulfoxide (DMSO) and were tested in a final concentration range of from 512 to 2 µg/mL. MICs for the reference antibiotic norfloxacin against quality control strains were used to confirm the validity of the screen. According to the CLSI guidelines, diphenylureas were tested in vitro against a panel of Gram-positive and Gram-negative bacteria belonging to the ATCC collection using the standard microdilution test for the determination of MICs. MICs of the synthesised compounds along with the parent compound TCC and with the standard antibiotic norfloxacin are listed in Table 1. The compounds were also analyzed in terms of molecular mass, logP (Table 1), number of hydrogen-bond donors and number of hydrogen-bond acceptors, and most of them obeyed Lipinski’s rule. […] Based on our results, it seems that the 3,4-dichloro-disubstitution pattern, which is present in TCC, is not crucial for activity. […] Moreover, the activity against Enterococcus faecalis was interesting. E. faecalis is a ubiquitous member of the healthy human gut microbiota and also a common opportunistic pathogen and leading cause of nosocomial infections. It has a high incidence for most infections, and the case numbers have been increasing in recent decades, likely due to its greater ability to persist in healthcare facilities and its higher abundance in the human gut microbiome. Kim et al. (2016) compared the bactericidal effects of plain and antibacterial soap containing 0.3% TCC. The authors found no significative difference between the effects of plain and medicated soap at either temperature, with the only exception of E. faecalis ATCC 19433 at 40 °C.
(§2) MICs (μg/mL) were determined by the broth microdilution method, using 96-well plates, according to CLSI [26]. Stock solutions of the investigated compounds were obtained by setting the concentration at the maximum possible value. Then, the stock solutions were diluted 1:10 with Mueller Hinton Broth (Oxoid, Italy). Afterwards, twofold serial dilutions in the suitable test medium were carried out to obtain a set of concentrations from 512 to 2 µg/mL in the wells. To obtain the stock solution, DMSO (100%) was employed as diluent. The following bacteria strains, available as freeze-dried discs, belonging to the ATCC collection, were used: Gram-positive: S. aureus ATCC 29213, 6538, and 6538P, E. faecalis ATCC 29212; Gram-negative: K. pneuomoniae ATCC 13883, P. aeruginosa ATCC 27853. To conserve the purity of cultures and to enable their reproducibility, cryovials of all microbial strains in the medium were set up and stored at −80 °C. Pre-cultures of each bacterial strain were prepared in Mueller Hinton Broth (MHB) and incubated at 37 °C for 3–5 h. The turbidity of bacterial cell suspension was calibrated to 0.5 McFarland Standard by the spectrophotometric method (OD 625 nm 0.08–0.10), as indicated in the CLSI protocol M7-A9 and, further, the standardized suspension was diluted (1:100) with MHB to reach 1–2 × 10^6 CFU/mL. All wells were seeded with 100 µl of the mentioned final inoculum, and some wells contained only inoculated broth as control growth. […] The MICs were determined by using the assay repeated twice in triplicate. Throughout the study, norfloxacin was used as reference antibiotic. Appropriate controls involved norfloxacin for bacteria as international reference standard. […]

Staphylococcus aureus = experiment: MIC by broth microdilution, S. aureus (strain not given); type: cell-based; details: strain not specified (best value among the ATCC strains), read-out: MIC against S. aureus
Procedure: as §1, §2

[1] = test system: HeLa uterine cancer cells; experiment: MTT cell viability assay; type: cell-based; details: Homo sapiens, 72 h, mean ± SD of three independent experiments
Description: (§3) Human MCF-7 and MDA-MB-231 breast cancer cells, HeLa and […] uterine carcinoma cells, A2058 melanoma epithelial cells, MCF-10A mammary epithelial cells and Hek-293 embryonic kidney epithelial cells were obtained from American Type Culture Collection (ATCC, Manassas, VA, USA). Estrogen receptor positive [(ER(+)] MCF-7 and triple negative MDA-MB-231 breast cancer cells were maintained in Dulbecco’s modified Eagle’s medium/nutrient mixture F-12 Ham (DMEM-F12) medium containing 2 mmol/L L-glutamine, 1 mg/mL penicillin-streptomycin and supplemented with 5% fetal bovine serum (FBS). HeLa epithelial cervix carcinoma cells, estrogen receptor negative [ER(-)], and Ishikawa endometrial adenocarcinoma cell, estrogen receptor positive [ER(+)], were kept in minimum essential medium (MEM), supplemented with 10% FBS, 100 U/mL penicillin/streptomycin and 1% non-essential amino acid. A2058 highly metastatic melanoma epithelial cells were kept in DMEM low glucose (1 g/L), supplemented with 20% FBS, 1% l-glutamine and 100 U/mL penicillin/streptomycin. MCF-10A mammary epithelial cells, were cultured in DMEM/F12 medium, supplemented with 5% horse serum (HS), 100 U/mL penicillin/streptomycin, […] hydrocortisone, 20 ng/mL human epidermal growth factor (hEGF), […] and […] cholera enterotoxin (Sigma-Aldrich, Milan, Italy). Hek-293 embryonic kidney epithelial cells were cultured in DMEM high glucose (4.5 g/L), supplemented with 10% FBS, 1% l-glutamine and 100 U/mL penicillin/streptomycin. Cells were conserved at 37 °C in a humid atmosphere of 95% air and 5% CO2, and screened for contamination at regular intervals.
(§4) Cell viability was determined using the 3-(4,5-dimethylthiazol-2-y1)-2,5-diphenyltetrazolium bromide (MTT, Sigma-Aldrich, Milan, Italy) assay. Cells were seeded on 48-well plates and grown in complete medium. Before treatment, cells were starved in serum free medium for 24 h to allow cell cycle synchronization. […] Data are representative of three independent experiments; standard deviations (SD) are shown.

[2] = test system: MDA-MB-231 breast cancer cells; experiment: MTT cell viability assay; type: cell-based; details: Homo sapiens, 72 h, mean ± SD of three independent experiments
Description: as §3, §4

[3] = test system: Hek-293 embryonic kidney epithelial cells; experiment: MTT cell viability assay; type: cell-based; details: Homo sapiens, HEK293, normal cells, 72 h, mean ± SD of three independent experiments
Description: as §3, §4

[4] = test system: A2058 melanoma epithelial cells; experiment: MTT cell viability assay; type: cell-based; details: Homo sapiens, 72 h, mean ± SD of three independent experiments
Description: as §3, §4

[5] = test system: Ishikawa uterine cancer cells; experiment: MTT cell viability assay; type: cell-based; details: Homo sapiens, 72 h, mean ± SD of three independent experiments
Description: as §3, §4

[6] = test system: MCF-10A mammary epithelial cells; experiment: MTT cell viability assay; type: cell-based; details: Homo sapiens, normal cells, 72 h, mean ± SD of three independent experiments
Description: as §3, §4

[7] = test system: MCF-7 breast cancer cells; experiment: MTT cell viability assay; type: cell-based; details: Homo sapiens, MCF7, 72 h, mean ± SD of three independent experiments
Description: as §3, §4

[8] = test system: cancer cell lines (MCF-7, MDA-MB-231, HeLa, Ishikawa, A2058); experiment: MTT cell viability assay, panel of cancer cell lines; type: cell-based; details: Homo sapiens, all cancer cell lines used, 72 h, read-out: IC50 against the cancer cell lines
Description: In order to investigate the anticancer effects of compounds 1ab, 1bc and 1ce (TCC), we used different human cancer cell models, namely, two breast cancer cells (MCF-7 and MDA-MB-231), two uterine cancer cells (HeLa and Ishikawa) and the melanoma epithelial cells A2058.
as §3
Cell viability was determined using the 3-(4,5-dimethylthiazol-2-y1)-2,5-diphenyltetrazolium bromide (MTT, Sigma-Aldrich, Milan, Italy) assay. […]

E. coli 25922 = experiment: MIC by broth microdilution (CLSI); type: cell-based; details: Escherichia coli, Gram-negative, 37 °C, 24 h, Mueller Hinton Broth
S. aureus ATCC 29213 = experiment: MIC by broth microdilution (CLSI); type: cell-based, Staphylococcus aureus; details: Staphylococcus aureus, ATCC29213; Gram-positive; 37 °C, 24 h, Mueller Hinton Broth
Procedure: as §1, §2

S. aureus ATCC 6538 = experiment: MIC by broth microdilution (CLSI); type: cell-based, Staphylococcus aureus; details: Staphylococcus aureus, ATCC6538; Gram-positive; 37 °C, 24 h, Mueller Hinton Broth
Procedure: as §1, §2

S. aureus ATCC 6538P = experiment: MIC by broth microdilution (CLSI); type: cell-based, Staphylococcus aureus; details: Staphylococcus aureus, ATCC6538P; Gram-positive; 37 °C, 24 h, Mueller Hinton Broth
Procedure: as §1, §2

P. aeruginosa ATCC 27853 = experiment: MIC by broth microdilution (CLSI); type: cell-based; details: Pseudomonas aeruginosa, ATCC27853; Gram-negative; 37 °C, 24 h, Mueller Hinton Broth
Procedure: as §1, §2

K. pneumoniae ATCC 13883 = experiment: MIC by broth microdilution (CLSI); type: cell-based; details: Klebsiella pneumoniae, ATCC13883; Gram-negative; 37 °C, 24 h, Mueller Hinton Broth; read-out: MIC K.p. 13883
Procedure: as §1, §2

SMILES	MIC (E. faecalis ATCC 29212)	MIC (Staphylococcus aureus)	IC50 [1]	IC50 [2]	IC50 [3]	IC50 [4]	IC50 [5]	IC50 [6]	IC50 [7]	IC50 [8]	MIC (E. coli 25922)	MIC (S. aureus ATCC 29213)	MIC (S. aureus ATCC 6538)	MIC (S. aureus ATCC 6538P)	MIC (P. aeruginosa ATCC 27853)	MIC (K. pneumoniae ATCC 13883)	melting point
O=C(Nc1ccc(Cl)cc1)Nc1ccc(Cl)c(Cl)c1 [1ce (TCC), 1-(3,4-Dichlorophenyl)-3-(4-chlorophenyl)urea, reference compound]	64 mg/L (≈ 203 µM)	16 mg/L (≈ 50.7 µM)	1.01 ± 1.1 mg/L (≈ 3.2 µM)	0.89 ± 0.8 mg/L (≈ 2.82 µM)	1.6 ± 0.8 mg/L (≈ 5.07 µM)	0.89 ± 0.7 mg/L (≈ 2.82 µM)	1.68 ± 0.9 mg/L (≈ 5.32 µM)	1.43 ± 0.7 mg/L (≈ 4.53 µM)	0.64 ± 0.5 mg/L (≈ 2.03 µM)	0.64 to 1.68 mg/L (≈ 2.03 to 5.32 µM)	256 mg/L (≈ 811 µM)	16 mg/L (≈ 50.7 µM)	128 mg/L (≈ 406 µM)	16 mg/L (≈ 50.7 µM)	256 mg/L (≈ 811 µM)	256 mg/L (≈ 811 µM)	–
Cc1ccc(NC(=O)Nc2c(C)cccc2C)cc1 [1ab, 1-(2,6-Dimethylphenyl)-3-p-tolylurea]	32 mg/L (≈ 126 µM)	16 mg/L (≈ 62.9 µM)	> 200 mg/L	> 200 mg/L	> 200 mg/L	> 200 mg/L	> 200 mg/L	> 200 mg/L	> 200 mg/L	> 200 mg/L	> 256 mg/L	> 256 mg/L	16 mg/L (≈ 62.9 µM)	16 mg/L (≈ 62.9 µM)	> 256 mg/L	> 256 mg/L	242 to 243 °C
Cc1cccc(C)c1NC(=O)Nc1ccc(Cl)cc1 [1bc, 1-(2,6-Dimethylphenyl)-3-(4-chlorophenyl)urea]	32 mg/L (≈ 116 µM)	16 mg/L (≈ 58.2 µM)	> 200 mg/L	> 200 mg/L	> 200 mg/L	> 200 mg/L	> 200 mg/L	> 200 mg/L	> 200 mg/L	> 200 mg/L	> 256 mg/L	256 mg/L (≈ 932 µM)	16 mg/L (≈ 58.2 µM)	16 mg/L (≈ 58.2 µM)	> 256 mg/L	> 256 mg/L	244 to 245 °C
Cc1ccccc1NC(=O)Nc1ccccc1F [1gl, 1-(2-Metylphenyl)-3-(2-fluorophenyl)urea]	128 mg/L (≈ 524 µM)	32 mg/L (≈ 131 µM)	–	–	–	–	–	–	–	–	> 256 mg/L	128 mg/L (≈ 524 µM)	64 mg/L (≈ 262 µM)	32 mg/L (≈ 131 µM)	> 256 mg/L	> 256 mg/L	224 to 225 °C
Cc1ccccc1NC(=O)Nc1ccccc1 [1fg, 1-(2-Methylphenyl)-3-phenylurea]	64 mg/L (≈ 283 µM)	16 mg/L (≈ 70.7 µM)	–	–	–	–	–	–	–	–	> 256 mg/L	256 mg/L (≈ 1130 µM)	32 mg/L (≈ 141 µM)	16 mg/L (≈ 70.7 µM)	> 256 mg/L	256 mg/L (≈ 1130 µM)	241 to 242 °C
Cc1cccc(C)c1NC(=O)Nc1ccc(Cl)c(Cl)c1 [1be, 1-(2,6-Dimethylphenyl)-3-(3,4-dichlorophenyl)urea]	64 mg/L (≈ 207 µM)	32 mg/L (≈ 103 µM)	–	–	–	–	–	–	–	–	> 256 mg/L	128 mg/L (≈ 414 µM)	32 mg/L (≈ 103 µM)	128 mg/L (≈ 414 µM)	> 256 mg/L	> 256 mg/L	249 to 250 °C
